Results from patent US20230339983A1, “FLUORESCENT COMPOUNDS SPECIFIC FOR PLURIPOTENT STEM CELLS AND REPROGRAMMING-READY CELLS AND METHODS OF USING THE SAME” (Agency for Science, Technology and Research, priority 2018, published 2023).

Columns and labels:
DPSCs = experiment: Proliferation assay (Trypan Blue viable cell count); type: cell-based, human; settings: 500 nM
Protocol: To ensure that BDL-E5 was not toxic to the cells, DPSCs were incubated with BDL-E5 (500 nM) for 48 h and 72 h and viable cells were counted in a haemocytometer using the Tryphan Blue method. DPSCs in which CREB1 was over-expressed or silenced were also counted at 72 h post nucleofection to determine if gene manipulation has affected the cell proliferation.

[1] = system: human iPS cells (AiPS, DiPS colonies); experiment: DOFLA screening (primary, secondary, tertiary) of fluorescent probes on iPS cells versus original somatic cells; type: cell-based
Protocol: The chemical properties of the BDL library are previously described (Jeong et al., 2015). BDL-E5 is based on 4,4-difluoro-4-bora-3a,4a-diaza-s-indacene (BODIPY), with calculated mass of 528.3 and absorption maximum/emission maximum of 578/599 nm. Primary, secondary and tertiary screening of fluorescent probes on AiPS, ASCs, DiPS and DPSCs were performed as described previously (Im, et al. (2010). Angew Chem Int Ed Engl 49, 7497-7500; Kang, et al. (2011). Nat Protoc 6, 1044-1052) and in the Results section. Unless described otherwise, BDL-E5 and CDy1 images were acquired by the Tetramethylrhodamine (TRITC) channel of ImageXpress Micro High-Content Imaging System, which had the Adaptive Background Correction function enabled.
A high-throughput system using in-house Diversity Orientated Fluorescence Library Approach (DOFLA) was employed to screen 46 fluorescent probes that the inventors predicted may specifically recognize pluripotent stem cells. To identify fluorescent probes that detected human pluripotent stem cells, ASCs, ASC-derived iPS (AiPS) cells, DPSCs, and DPSC-derived iPS (DiPS) cells were used. […] Cells were seeded onto 384-well plates (primary screen) or 96-well plates (secondary and tertiary screen) coated with mouse embryonic fibroblasts (MEF) or matrigel (MG) for DOFLA screening (FIG. 1A). After 48 h, cells were stained with library probes (500 nM) for 1 h. Fluorescence was imaged using the ImageXpress System under the following conditions: “No wash” (after 1 h probe incubation), “Wash 0 min” (after one wash with PBS), “Wash 60 min” (after wash and destain for 1 h) and “Wash 180 min” (after wash and destain for 3 h) (FIG. 1A).
Images were analyzed using the MetaXpress Image Acquisition and Analysis software. Following tertiary screening, two probes were shortlisted to develop further as pluripotent probes: BDL-E5 and CDy1. The chemical structure of BDL-E5 is depicted in FIG. 1B.
Secondary screening was performed to confirm that the probes selectively stained different iPS colonies. […] The BDL-E5^+ colonies were also positively stained for the pluripotency marker TRA-1-60.
Based on the primary and secondary screenings for live fluorescent probes that can specifically identify pluripotent cells, BDL-E5 and CDy1 were chosen as two probes to further analyze. Tertiary screening was performed using the two probes on AiPS colonies under the following probe staining conditions: No wash, Wash 0 min, Wash 60 min, and Wash 180 min.

[2] = system: reprogrammed SC-ASCs and VS-ASCs; experiment: FACS of reprogrammed ASCs stained with BDL-E5 at 14 dpn and iPS colony count; type: cell-based, human; settings: for iPS colonies from BDL-E5+ versus BDL-E5- sorted cells: seeded on MEF; for percentage of cells staining negatively / percentage of cells staining positively: FACS at 14 dpn
Text: WAT was isolated from subcutaneous (abdominal region) and visceral (omental region) depots from 2 human volunteers (S15-S16, undergoing bariatric surgery, with approval by the National Healthcare Group Domain Specific Review Board at National Healthcare Group, Singapore) as described previously (Ong, et al. (2014). Stem Cell Reports 2, 171-179; Takeda, et al. (2016). Diabetes 65, 1164-1178). […]. ASCs were isolated from WAT and cultured, as previously described (Sugii, et al. (2011). Nature Protoc 6, 346-358). Cells only up to passage 5 were used for experiments. MSC cell surface markers and multipotency of ASCs used herein were confirmed by flow cytometry and differentiation assays, respectively (Ong, et al. (2014). Stem Cell Reports 2, 171-179).
(§1) Reprogrammed ASCs and DPSCs, AiPS and DiPS on D7 or D14 dpn were stained with BDL-E5 for 1 hour and then harvested using TrypLE and resuspended in 1×PBS. The cells were then subjected to FACS in the MoFlo XDP Cell Sorter (Beckman Coulter) under sterile conditions.
Next, the inventors investigated whether the probe was useful in assisting reprogramming selection of obese patient-derived ASCs from subcutaneous (SC) and visceral (VS) fat depots. […] FIG. 10A (iii) and (iv) represents the unstained ASCs. BDL-E5^+ and BDL-E5^− cells sorted using FACS were seeded onto MEF-coated plates.
To investigate the quality of the BDL-E5^+ generated iPS cells, the iPS colonies were passaged for several generations. As shown in FIG. 10B(i), ASC-derived BDL-E5^+ colonies remained well self-renewed and TRA-1-60 positive for subsequent passages.

reprogrammed DPSCs = experiment: FACS of reprogrammed DPSCs stained with BDL-E5 at 7 dpn and iPS colony count; type: cell-based, human; settings: DPSCs sorted at 7 dpn, seeded on MEF, two weeks
Protocol: as §1
Different DPSC cell lines were reprogrammed using the feeder-free episomal method, incubated with BDL-E5, and subjected to fluorescence activated cell sorting (FACS) at 7 dpn. […] FIG. 10A (i) and (ii) represents the unstained DPSCs.
The cells were allowed to grow for the next two weeks until colonies appeared.

COc1cc(F)c(/C=C/c2cc(C)c3n2[B-](F)(F)[N+]2=C(CCC(=O)NCCN(C)C)C=CC2=C3)cc1OC [BDL-E5]
toxicity to cells (DPSCs): not toxic | intensity of fluorescence in human iPS cells compared with original somatic cells and MEFs ([1]; 500 nM probe, 1 h, after tertiary screening): significantly increased intensity of fluorescence | staining of AiPS colonies compared with original somatic cells (ASCs) ([1]; primary screening, MEF- or MG-coated plates, 500 nM, 1 h, BDL-E5 No wash): increased BDL-E5 staining | staining of DiPS colonies compared with original DPSCs ([1]; secondary screening, MEF- or MG-coated plates, 500 nM, 1 h, BDL-E5 No wash): significantly increased fluorescence intensity | wash condition under which staining (signal-to-background ratio) was greatest ([1]; tertiary screening, AiPS colonies on MEF-coated plates): No wash | wash condition under which staining was greatest ([1]; tertiary screening, AiPS colonies on MG-coated plates): No wash | iPS colonies from BDL-E5+ versus BDL-E5- sorted cells ([2]; SC-ASCs sorted at 14 dpn): gave rise to more colonies than the BDL-E5^− population | percentage of cells staining negatively ([2]; SC-ASCs): ~11% | percentage of cells staining positively ([2]; SC-ASCs): ~33% | iPS colonies from BDL-E5+ versus BDL-E5- sorted cells ([2]; VS-ASCs sorted at 14 dpn): at least some BDL-E5^+ VS-ASCs gave rise to iPS colonies | percentage of cells staining negatively ([2]; VS-ASCs): ~24% | percentage of cells staining positively ([2]; VS-ASCs): ~19% | iPS colonies from BDL-E5+ (top 10%) versus BDL-E5- (bottom 10%) sorted cells (reprogrammed DPSCs): gave rise to an increased number of iPSCs
